From ChEMBL document CHEMBL1145395, “De novo design of selective antibiotic peptides by incorporation of unnatural amino acids” (J Med Chem, 2007)
Converted amounts (≈) assume the structure as drawn. The source made the active and inactive calls. The calls are words filed in the database; no cut-off is given here. Non-standard residues stand in square brackets, D forms with d. Residues, ends and D or L forms follow the SMILES beside them. ξ: configuration not given here. Pro(3ξ,4ξ-(CH2)4) = O=C(O)[C@H]1NCC2CCCCC21; Oic = O=C(O)[C@@H]1C[C@@H]2CCCC[C@@H]2N1; Tic = O=C(O)[C@@H]1Cc2ccccc2CN1; ξTic = O=C(O)C1Cc2ccccc2CN1; Ahx = NCCCCCC(=O)O; GABA = NCCCC(=O)O

How the values were obtained:
[1] = Toxicity to mouse RBC assessed as hemolytic activity at 25 uM; format: cell-based, Erythrocyte; conditions: red blood cells, read-out: Activity
Mycobacterium = test: Antibacterial activity against Mycobacterium ranae ATCC 110; format: functional
[2] = Toxicity to mouse RBC assessed as hemolytic activity at 100 uM; format: cell-based, Erythrocyte; conditions: red blood cells, read-out: Activity
Bacillus subtilis = test: Antibacterial activity against Bacillus subtilis ATCC 43223; format: functional
Staphylococcus aureus = test: Antibacterial activity against methicillin/gentamicin/tetracycline resistant Staphylococcus aureus ATCC 33592; format: functional
Salmonella typhimurium = test: Antibacterial activity against Salmonella Typhimurium ATCC 13311; format: functional, Salmonella enterica subsp. enterica serovar Typhimurium; conditions: Salmonella enterica
Mus musculus [3] = test: Acute toxicity in mouse at 25 mg/kg, ip after 6 days; format: organism-based; set-up: dose 25 mg/kg, route intraperitoneal; conditions: in vivo, 144 h
Mus musculus [4] = test: Acute toxicity in mouse at 5 mg/kg, ip after 6 days; format: organism-based; set-up: dose 5 mg/kg, route intraperitoneal; conditions: in vivo, 144 h
Mus musculus [5] = test: Acute toxicity in mouse at 1 mg/kg, ip after 6 days; format: organism-based; set-up: dose 1 mg/kg, route intraperitoneal; conditions: in vivo, 144 h

Compound | hemolysis at 25 µM [1] [%] | MIC (Mycobacterium) [µM] | hemolysis at 100 µM [2] [%] | MIC (Bacillus subtilis) [µM] | Activity (Staphylococcus aureus) | MIC (Salmonella typhimurium) [µM] | Activity (Mus musculus [3]) | MIC (Staphylococcus aureus) [µM] | Activity (Mus musculus [4]) | Activity (Mus musculus [5])
CC(=O)NCC(=O)N[C@@H](Cc1ccccc1)C(=O)N1Cc2ccccc2C[C@H]1C(=O)NCC(=O)N[C@@H](CCCCN)C(=O)N1Cc2ccccc2C[C@H]1C(=O)NCC(=O)N[C@@H](Cc1ccccc1)C(=O)N1Cc2ccccc2C[C@H]1C(=O)NCC(=O)N[C@H](CCCCN)C(=O)N1Cc2ccccc2C[C@H]1C(=O)N[C@@H](CCCCN)C(=O)N[C@@H](CCCCN)C(=O)N[C@@H](CCCCN)C(=O)N[C@@H](CCCCN)C(N)=O | 4.9 | 30 (≈ 59.6 µg/mL) | 6 | 10 (≈ 19.9 µg/mL) | inactive | 100 (≈ 199 µg/mL) |  |  |  | 
CC(=O)N[C@@H](Cc1ccccc1)C(=O)N1Cc2ccccc2C[C@H]1C(=O)N1CC2CCCCC2[C@H]1C(=O)N[C@@H](CCCCN)C(=O)N1Cc2ccccc2C[C@H]1C(=O)N1CC2CCCCC2[C@H]1C(=O)N[C@@H](Cc1ccccc1)C(=O)N1Cc2ccccc2C[C@H]1C(=O)N1CC2CCCCC2[C@H]1C(=O)N[C@@H](CCCCN)C(=O)N1Cc2ccccc2C[C@H]1C(=O)N[C@@H](CCCCN)C(=O)N[C@@H](CCCCN)C(=O)N[C@@H](CCCCN)C(=O)N[C@@H](CCCCN)C(N)=O (some centres not stated) (Ac-F[Tic][Pro(3ξ,4ξ-(CH2)4)]K[Tic][Pro(3ξ,4ξ-(CH2)4)]F[Tic][Pro(3ξ,4ξ-(CH2)4)]K[Tic]KKKK-NH2) | 50 | 30 (≈ 66.4 µg/mL) | 86.8 | 1 (≈ 2.21 µg/mL) |  | 10 (≈ 22.1 µg/mL) | Non-toxic | 3 (≈ 6.64 µg/mL) | Non-toxic | Non-toxic
CC(=O)N[C@@H](Cc1ccccc1)C(=O)N1Cc2ccccc2C[C@H]1C(=O)N1CC2CCCCC2[C@H]1C(=O)N[C@@H](CCCCN)C(=O)N1Cc2ccccc2C[C@H]1C(=O)N1CC2CCCCC2[C@H]1C(=O)N[C@@H](Cc1ccccc1)C(=O)N1Cc2ccccc2C[C@H]1C(=O)N1CC2CCCCC2[C@H]1C(=O)N[C@@H](CCCCN)C(=O)N1Cc2ccccc2C[C@H]1C(=O)N[C@@H](CCCCN)C(=O)N[C@@H](CCCCN)C(=O)N[C@@H](CCCCN)C(=O)N[C@@H](CCCCN)C(=O)N[C@@H](CCCCN)C(=O)N[C@@H](CCCCN)C(N)=O (some centres not stated) (Ac-F[Tic][Pro(3ξ,4ξ-(CH2)4)]K[Tic][Pro(3ξ,4ξ-(CH2)4)]F[Tic][Pro(3ξ,4ξ-(CH2)4)]K[Tic]KKKKKK-NH2) | 33.5 | 3 (≈ 7.41 µg/mL) | 41.3 | 1 (≈ 2.47 µg/mL) |  | 10 (≈ 24.7 µg/mL) |  | 3 (≈ 7.41 µg/mL) |  | 
CC(=O)NCC(=O)N[C@@H](Cc1ccccc1)C(=O)NCC(=O)N1CC2CCCCC2[C@H]1C(=O)NCC(=O)N[C@@H](CCCCN)C(=O)NCC(=O)N1CC2CCCCC2[C@H]1C(=O)NCC(=O)N[C@@H](Cc1ccccc1)C(=O)NCC(=O)N1CC2CCCCC2[C@H]1C(=O)NCC(=O)N[C@@H](CCCCN)C(=O)NCC(=O)N[C@@H](CCCCN)C(=O)N[C@@H](CCCCN)C(=O)N[C@@H](CCCCN)C(=O)N[C@@H](CCCCN)C(N)=O (some centres not stated) (Ac-GFG[Pro(3ξ,4ξ-(CH2)4)]GKG[Pro(3ξ,4ξ-(CH2)4)]GFG[Pro(3ξ,4ξ-(CH2)4)]GKGKKKK-NH2) | 3.3 |  | 3.3 |  |  |  |  |  |  | 
CC(=O)NCC(=O)N[C@@H](Cc1ccccc1)C(=O)N1CC2CCCCC2[C@H]1C(=O)NCC(=O)N[C@@H](CCCCN)C(=O)N1CC2CCCCC2[C@H]1C(=O)NCC(=O)N[C@@H](Cc1ccccc1)C(=O)N1CC2CCCCC2[C@H]1C(=O)NCC(=O)N[C@@H](CCCCN)C(=O)N[C@@H](CCCCN)C(=O)N[C@@H](CCCCN)C(=O)N[C@@H](CCCCN)C(=O)N[C@@H](CCCCN)C(N)=O (some centres not stated) (Ac-GF[Pro(3ξ,4ξ-(CH2)4)]GK[Pro(3ξ,4ξ-(CH2)4)]GF[Pro(3ξ,4ξ-(CH2)4)]GKKKKK-NH2) | 3.2 |  | 5.9 |  |  |  |  |  |  | 
CC(=O)NCC(=O)N[C@@H](Cc1ccccc1)C(=O)N1Cc2ccccc2C[C@H]1C(=O)NCC(=O)NCC(=O)N[C@@H](CCCCN)C(=O)N1Cc2ccccc2C[C@H]1C(=O)NCC(=O)NCC(=O)N[C@@H](Cc1ccccc1)C(=O)N1Cc2ccccc2C[C@H]1C(=O)NCC(=O)NCC(=O)N[C@@H](CCCCN)C(=O)N1Cc2ccccc2C[C@H]1C(=O)N[C@@H](CCCCN)C(=O)N[C@@H](CCCCN)C(=O)N[C@@H](CCCCN)C(=O)N[C@@H](CCCCN)C(N)=O (Ac-GF[Tic]GGK[Tic]GGF[Tic]GGK[Tic]KKKK-NH2) | 3.8 | 30 (≈ 64.8 µg/mL) | 5.7 | 10 (≈ 21.6 µg/mL) | inactive | 100 (≈ 216 µg/mL) |  |  |  | 
CC(=O)NCC(=O)N[C@@H](Cc1ccccc1)C(=O)N1Cc2ccccc2C[C@H]1C(=O)N1CC2CCCCC2[C@H]1C(=O)NCC(=O)N[C@@H](CCCCN)C(=O)N1Cc2ccccc2C[C@H]1C(=O)N1CC2CCCCC2[C@H]1C(=O)NCC(=O)N[C@@H](Cc1ccccc1)C(=O)N1Cc2ccccc2C[C@H]1C(=O)N1CC2CCCCC2[C@H]1C(=O)NCC(=O)N[C@@H](CCCCN)C(=O)N1Cc2ccccc2C[C@H]1C(=O)N[C@@H](CCCCN)C(=O)N[C@@H](CCCCN)C(=O)N[C@@H](CCCCN)C(=O)N[C@@H](CCCCN)C(=O)N[C@@H](CCCCN)C(N)=O (some centres not stated) (Ac-GF[Tic][Pro(3ξ,4ξ-(CH2)4)]GK[Tic][Pro(3ξ,4ξ-(CH2)4)]GF[Tic][Pro(3ξ,4ξ-(CH2)4)]GK[Tic]KKKKK-NH2) | 18.9 |  | 24.9 |  |  |  |  |  |  | 
CC(=O)NCC(=O)N1Cc2ccccc2C[C@H]1C(=O)N1CC2CCCCC2[C@H]1C(=O)N[C@@H](CCCCN)C(=O)N1Cc2ccccc2C[C@H]1C(=O)N1CC2CCCCC2[C@H]1C(=O)NCC(=O)N1Cc2ccccc2CC1C(=O)N1CC2CCCCC2[C@H]1C(=O)N[C@@H](CCCCN)C(=O)N1Cc2ccccc2C[C@H]1C(=O)N[C@@H](CCCCN)C(=O)N[C@@H](CCCCN)C(=O)N[C@@H](CCCCN)C(=O)N[C@@H](CCCCN)C(N)=O (some centres not stated) (Ac-G[Tic][Pro(3ξ,4ξ-(CH2)4)]K[Tic][Pro(3ξ,4ξ-(CH2)4)]G[ξTic][Pro(3ξ,4ξ-(CH2)4)]K[Tic]KKKK-NH2) | 9.2 | 3 (≈ 6.1 µg/mL) | 26.7 | 1 (≈ 2.03 µg/mL) |  | 10 (≈ 20.3 µg/mL) | Non-toxic | 10 (≈ 20.3 µg/mL) | Non-toxic | Non-toxic
CC(=O)NCCCCCC(=O)N[C@@H](Cc1ccccc1)C(=O)N1Cc2ccccc2C[C@H]1C(=O)N1CC2CCCCC2[C@H]1C(=O)NCCCCCC(=O)N[C@@H](CCCCN)C(=O)N1Cc2ccccc2C[C@H]1C(=O)N1CC2CCCCC2[C@H]1C(=O)NCCCCCC(=O)N[C@@H](Cc1ccccc1)C(=O)N1Cc2ccccc2C[C@H]1C(=O)N1CC2CCCCC2[C@H]1C(=O)NCCCCCC(=O)N[C@@H](CCCCN)C(=O)N1Cc2ccccc2C[C@H]1C(=O)N[C@@H](CCCCN)C(=O)N[C@@H](CCCCN)C(=O)N[C@@H](CCCCN)C(=O)N[C@@H](CCCCN)C(N)=O (some centres not stated) (Ac-[Ahx]F[Tic][Pro(3ξ,4ξ-(CH2)4)][Ahx]K[Tic][Pro(3ξ,4ξ-(CH2)4)][Ahx]F[Tic][Pro(3ξ,4ξ-(CH2)4)][Ahx]K[Tic]KKKK-NH2) | 26.6 | 3 (≈ 8 µg/mL) | 44.7 | 1 (≈ 2.67 µg/mL) |  | 10 (≈ 26.7 µg/mL) |  | 10 (≈ 26.7 µg/mL) |  | 
CC(=O)NCCCC(=O)N[C@@H](Cc1ccccc1)C(=O)N1Cc2ccccc2C[C@H]1C(=O)N1[C@H](C(=O)NCCCC(=O)N[C@@H](CCCCN)C(=O)N2Cc3ccccc3C[C@H]2C(=O)N2[C@H](C(=O)NCCCC(=O)N[C@@H](Cc3ccccc3)C(=O)N3Cc4ccccc4C[C@H]3C(=O)N3[C@H](C(=O)NCCCC(=O)N[C@@H](CCCCN)C(=O)N4Cc5ccccc5C[C@H]4C(=O)N[C@@H](CCCCN)C(=O)N[C@@H](CCCCN)C(=O)N[C@@H](CCCCN)C(=O)N[C@@H](CCCCN)C(N)=O)C[C@@H]4CCCC[C@@H]43)C[C@@H]3CCCC[C@@H]32)C[C@@H]2CCCC[C@@H]21 (Ac-[GABA]F[Tic][Oic][GABA]K[Tic][Oic][GABA]F[Tic][Oic][GABA]K[Tic]KKKK-NH2) | 1 |  | 10.8 |  |  |  | Non-toxic |  | Non-toxic | Non-toxic
CC(=O)NCCCC(=O)N[C@@H](Cc1ccccc1)C(=O)N1Cc2ccccc2C[C@H]1C(=O)N1[C@H](C(=O)NCCCC(=O)N[C@@H](CCCCN)C(=O)N2Cc3ccccc3C[C@H]2C(=O)N2[C@H](C(=O)NCCCC(=O)N[C@@H](Cc3ccccc3)C(=O)N3Cc4ccccc4C[C@H]3C(=O)N3[C@H](C(=O)NCCCC(=O)N[C@@H](CCCCN)C(=O)N4Cc5ccccc5C[C@H]4C(=O)N[C@@H](CCCCN)C(=O)N[C@@H](CCCCN)C(=O)N[C@@H](CCCCN)C(=O)N[C@@H](CCCCN)C(=O)N[C@@H](CCCCN)C(N)=O)C[C@@H]4CCCC[C@@H]43)C[C@@H]3CCCC[C@@H]32)C[C@@H]2CCCC[C@@H]21 (Ac-[GABA]F[Tic][Oic][GABA]K[Tic][Oic][GABA]F[Tic][Oic][GABA]K[Tic]KKKKK-NH2) | 10.5 |  | 29.7 |  |  |  |  |  |  | 
NCCCC[C@H](NC(=O)[C@H](CCCCN)NC(=O)[C@H](CCCCN)NC(=O)[C@H](CCCCN)NC(=O)[C@@H]1Cc2ccccc2CN1C(=O)[C@H](CCCCN)NC(=O)CNC(=O)[C@@H]1C[C@@H]2CCCC[C@@H]2N1C(=O)[C@@H]1Cc2ccccc2CN1C(=O)[C@H](Cc1ccccc1)NC(=O)CNC(=O)[C@@H]1C[C@@H]2CCCC[C@@H]2N1C(=O)[C@@H]1Cc2ccccc2CN1C(=O)[C@H](CCCCN)NC(=O)CNC(=O)[C@@H]1C[C@@H]2CCCC[C@@H]2N1C(=O)[C@@H]1Cc2ccccc2CN1C(=O)[C@H](Cc1ccccc1)NC(=O)CN)C(N)=O (H-GF[Tic][Oic]GK[Tic][Oic]GF[Tic][Oic]GK[Tic]KKKK-NH2) | 14.3 |  | 33.4 |  |  |  |  |  |  | 
